Read-outs that look alike come from different tables or passages of the source.
Legend:
TrkA kinase = TrkA kinase (Homo sapiens, UniProt P04629); experiment: TrkA kinase assay (mobility shift assay); assay type: biochemical; settings: read-out: Trk A Kinase IC50
In short: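 Ten-point compound series was preincubated 10 min at room temperature with TrkA, then FAM-peptide plus ATP added in HEPES pH 7.5/Brij-35 buffer and reacted at 28 °C before EDTA quench.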

Ba/F3-TPM3-NTRK1 = molecular target: T1, Ba/F3-TPM3-NTRK1 (Homo sapiens, UniProt P04629); experiment: Ba/F3-TPM3-NTRK1 cells proliferation assay; assay type: cell-based; settings: 72 h, CellTiter Glo
T1 construct: expressed in transfected cells; host or cells: Ba/F3; the other entry of the earlier key: TPM3 (P06753, Tropomyosin alpha-3 chain)
T1 sequence (P04629 510-796 limits assumed): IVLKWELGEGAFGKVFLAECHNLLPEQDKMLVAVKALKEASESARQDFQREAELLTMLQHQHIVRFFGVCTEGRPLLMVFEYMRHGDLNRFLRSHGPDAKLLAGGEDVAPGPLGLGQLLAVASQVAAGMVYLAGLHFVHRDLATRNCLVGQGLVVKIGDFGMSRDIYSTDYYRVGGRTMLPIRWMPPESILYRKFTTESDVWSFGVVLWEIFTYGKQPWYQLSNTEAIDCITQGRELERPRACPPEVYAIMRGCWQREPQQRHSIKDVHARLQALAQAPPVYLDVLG
In short: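 Ba/F3 cells stably expressing TPM3-NTRK1 or ETV6-NTRK3 fusions, 2000/well, exposed 72 h to compound at 300 to 0.05 nM final (3-fold series, 0.5% DMSO). Viability by CellTiter-Glo luminescence; IC50 by four-parameter nonlinear regression.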

TrkA kinase, sequence (P04629 33-796): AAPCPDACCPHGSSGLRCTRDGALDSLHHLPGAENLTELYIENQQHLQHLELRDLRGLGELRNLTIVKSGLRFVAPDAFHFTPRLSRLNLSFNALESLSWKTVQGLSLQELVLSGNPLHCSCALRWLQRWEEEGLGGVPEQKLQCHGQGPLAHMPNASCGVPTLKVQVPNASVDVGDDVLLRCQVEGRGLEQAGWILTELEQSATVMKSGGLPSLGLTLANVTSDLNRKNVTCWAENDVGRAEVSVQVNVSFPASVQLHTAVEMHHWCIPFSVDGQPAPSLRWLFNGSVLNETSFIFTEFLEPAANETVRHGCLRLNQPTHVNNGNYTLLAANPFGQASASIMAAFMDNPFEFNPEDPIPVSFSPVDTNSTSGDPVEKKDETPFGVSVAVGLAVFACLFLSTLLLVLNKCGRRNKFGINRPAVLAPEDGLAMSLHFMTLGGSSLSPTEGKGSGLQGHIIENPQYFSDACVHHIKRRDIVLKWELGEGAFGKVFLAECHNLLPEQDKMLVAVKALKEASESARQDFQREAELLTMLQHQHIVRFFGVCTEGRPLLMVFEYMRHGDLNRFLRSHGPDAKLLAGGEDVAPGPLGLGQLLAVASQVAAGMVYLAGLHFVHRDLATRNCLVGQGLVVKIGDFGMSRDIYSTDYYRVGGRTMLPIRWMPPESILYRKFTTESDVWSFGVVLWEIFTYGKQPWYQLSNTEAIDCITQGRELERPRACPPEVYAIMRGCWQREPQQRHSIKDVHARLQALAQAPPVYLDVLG

SMILES | IC50 (TrkA kinase; numeric values) [nM] | IC50 (Ba/F3-TPM3-NTRK1) [nM] | IC50 (TrkA kinase; class symbols) [nM]
C[C@@H](CO)c1nnc(-c2cnn3ccc(N4CCC[C@@H]4c4cc(F)ccc4F)nc23)[nH]1 [Compound 39, (R)-2-(5-(5-((R)-2-(2,5-difluorophenyl)pyrrolidin-1-yl)pyrazolo[1,5-a]pyrimidin-3-yl)-4H-1,2,4-triazol-3-yl)propan-1-ol] | 1.26 | 7.42 | 
OC(c1nnc(-c2cnn3ccc(N4CCC[C@@H]4c4cc(F)ccc4F)nc23)[nH]1)C(F)(F)F (stereo partly drawn) [Compound 47, 1-(5-(5-((R)-2-(2,5-difluorophenyl)pyrrolidin-1-yl)pyrazolo[1,5-a]pyrimidin-3-yl)-4H-1,2,4-triazol-3-yl)-2,2,2-trifluoroethan-1-ol] | 3.23 |  | 
CC(C)(O)Cc1nnc(-c2cnn3ccc(N4CCC[C@@H]4c4cc(F)ccc4F)nc23)[nH]1 [Compound 30, (R)-1-(5-(5-(2-(2,5-difluorophenyl)pyrrolidin-1-yl)pyrazolo[1,5-a]pyrimidin-3-yl)-4H-1,2,4-triazol-3-yl)-2-methylpropan-2-ol] | 4.9 | 13.8 | 
C[C@H](N)c1nnc(-c2cnn3ccc(N4CCC[C@@H]4c4cc(F)ccc4F)nc23)[nH]1 [Compound 11, (S)-1-(5-(5-((R)-2-(2,5-difluorophenyl)pyrrolidin-1-yl)pyrazolo[1,5-a]pyrimidin-3-yl)-4H-1,2,4-triazol-3-yl)ethan-1-amine] |  | 13.6 | ≤ 10

Next, values leading:

IC50 (TrkA kinase; numeric values) [nM] | IC50 (Ba/F3-TPM3-NTRK1) [nM] | IC50 (TrkA kinase; class symbols) [nM] | SMILES
1.37 | 3.55 |  | C[C@H](O)c1nnc(-c2cnn3ccc(N4CCC[C@@H]4c4cc(F)ccc4F)nc23)[nH]1 [Compound 4, (S)-1-(5-(5-((R)-2-(2,5-difluorophenyl)pyrrolidin-1-yl)pyrazolo[1,5-a]pyrimidin-3-yl)-4H-1,2,4-triazol-3-yl)ethan-1-ol]
2.3 | 3.88 |  | OC1CC(c2nnc(-c3cnn4ccc(N5CCC[C@@H]5c5cc(F)ccc5F)nc34)[nH]2)C1 (stereo partly drawn) [Compound 31, (R)-3-(5-(5-(2-(2,5-difluorophenyl)pyrrolidin-1-yl)pyrazolo[1,5-a]pyrimidin-3-yl)-4H-1,2,4-triazol-3-yl)cyclobutan-1-ol]
2.3 | 20.9 |  | OC1(c2nnc(-c3cnn4ccc(N5CCC[C@@H]5c5cc(F)ccc5F)nc34)[nH]2)CCC1 [Compound 23, (R)-1-(5-(5-(2-(2,5-difluorophenyl)pyrrolidin-1-yl)pyrazolo[1,5-a]pyrimidin-3-yl)-4H-1,2,4-triazol-3-yl)cyclobutan-1-ol]
0.68 | 8.17 |  | CC(C)(O)c1nnc(-c2cnn3ccc(N4CCC[C@@H]4c4cc(F)ccc4F)nc23)[nH]1 [Compound 7, (R)-2-(5-(5-(2-(2,5-difluorophenyl)pyrrolidin-1-yl)pyrazolo[1,5-a]pyrimidin-3-yl)-4H-1,2,4-triazol-3-yl)propan-2-ol]

Reference: patent US20210395256A1, “TYROSINE KINASE INHIBITORS, COMPOSITIONS AND METHODS THERE OF” (Betta Pharmaceuticals Co., Ltd., priority 2018, published 2021)
